The text below walks through data of PubChem BioAssay (NCI).

The term TGI denotes the concentration giving total growth inhibition. A lower TGI goes with greater sensitivity of the cells. For orientation: GI50 means the concentration at which growth is held to half of that of the control.

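1) Cells in 96-well plates. 2) Compound, 48 h, 5 concentrations. 3) Linear interpolation between surrounding doses. 4) Unreached endpoint = highest concentration. GI50 is the concentration that inhibits growth by half. The concentration for full growth arrest is given as TGI.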

Common to all, as to test: DTP human tumour cell line panel, 48 h
Experiment [1] concerns HT29 colon.
Experiment [2] deals with OVCAR-3 ovarian.
The test system of experiment [3] is A498 renal.
Experiment [4] concerns CCRF-CEM leukemia.
Experiment [5] concerns UACC-257 melanoma.
In experiment [6] the test system is OVCAR-5 ovarian.
Experiment [7] has as its system RPMI-8226 leukemia.
Experiment [8] concerns PC-3 prostate.
Experiment [9] concerns NCI/ADR-RES ovarian.
The subject of experiment [10] is HS 578T breast.

With `COc1cc(/C=C/c2ccc(Br)cc2)cc(OC)c1OC`, the TGI is over 39.3 µM in experiment [1]; 26.4 µM in experiment [2]; over 56.6 µM in [3]; over 88 µM in [4]; over 95.5 µM in experiment [5]; over 75.1 µM in [6]. The compound further yielded a total growth inhibition concentration (TGI) in experiment [7] of 20.8 µM.

As to `COc1ccc(S(=O)(=O)N[C@H](C(=O)O)c2ccccc2)cc1`, the TGI in experiment [1], in experiment [2], in experiment [4], in [5], in experiment [6] and in [7] was over 100 µM each time.

Consider `CCOC(=O)C(NO)C(Sc1ccccc1)c1ccc(OC)cc1` (stereo not drawn), for which the TGI in experiment [1], in experiment [2], in experiment [5], in experiment [6] and in [7] was over 100 µM each time.

As for `CCN(CC)CC(=O)NC1c2ccccc2Oc2c(C)cccc21` (stereo not drawn), the TGI in [1], in experiment [4], in experiment [5], in [6] and in [7] was over 100 µM each time.

Regarding `COc1ccc2c(c1)[n+](=O)c(C(=O)C/C(=N/NC(=O)C[N+](C)(C)C)C(=O)Nc1cccc(C)c1C)c(C)n2O`, the TGI in experiment [1], in experiment [2], in experiment [3], in experiment [5], in [6] and in [7] was over 100 µM throughout.

As for `COC(=O)C1C(=O)O[C@@H](c2ccc(OC)c(OC)c2OC)C1C(=O)OC` (mixture of isomers), the TGI in experiment [1], in experiment [2], in experiment [3], in experiment [4], in experiment [5] and in [6] was over 100 µM each time. This compound returned a TGI in experiment [7] of over 100 µM.

`O=S(=O)(c1ccccc1)N1CN2CN(C1)CN(S(=O)(=O)c1ccccc1)C2`: the TGI in [1], in experiment [2], in experiment [3], in experiment [5], in [8] and in experiment [9] was over 100 µM in each case. Also, the TGI in experiment [6] and in experiment [7] was over 100 µM in each case.

`CC(=O)Nc1ccc(/C=C2\N=C(c3ccccc3)OC2=O)cc1`: the TGI in [4], in experiment [5], in [6] and in experiment [7] was over 100 µM throughout.

On to `COc1cc(-c2ccc(NC(=O)SCCC(=O)O)cc2OC)ccc1NC(=O)SCCC(=O)O`, for which the TGI in experiment [1], in experiment [2], in [3], in experiment [4], in [5] and in experiment [6] was over 100 µM each time. The compound also gave a TGI in experiment [7] of over 100 µM.

In the case of `COC1[C@H](NC(=O)OC(C)(C)C)C(=O)N1Cc1ccccc1` (stereo partly drawn), the TGI in experiment [1], in experiment [2], in experiment [3], in experiment [4], in experiment [5] and in experiment [6] was over 100 µM each time. In [7], this compound returned a TGI of over 100 µM.

Regarding `COC1OC(CBr)C(OC(=O)c2ccccc2)C(OS(=O)(=O)c2ccc(C)cc2)C1Br` (stereo not drawn), the TGI in [1], in experiment [2], in experiment [3], in experiment [4], in experiment [5] and in experiment [7] was over 100 µM throughout.

Consider `Cc1ccc(-c2nc3cc(Cl)c(Cl)cc3nc2C#N)cc1`, for which the GI50 in [1], in [2], in [3], in experiment [4], in experiment [5] and in [8] was over 100 µM in each case. Besides, the GI50 in experiment [9] is 81.2 µM; in experiment [6] it was 46.2 µM. Also, the total growth inhibition concentration (TGI) in experiment [1], in [2], in [3], in experiment [4], in experiment [5] and in experiment [8] was over 100 µM throughout. The TGI in experiment [9] and in experiment [6] was over 100 µM each time.

With `CC1CCC(=O)C(C(O)CC2CC(=O)N(c3ccccc3)C(=O)C2)C1` (stereo not drawn), the TGI in experiment [1], in experiment [2], in [3], in experiment [4], in experiment [5] and in experiment [6] was over 100 µM each time. In [7], the TGI was over 100 µM.

`O=C1C2c3[nH]c4ccccc4c3C3CCCCCC3C2C(=O)N1c1ccccc1` (stereo not drawn): the TGI was over 100 µM in [1]; 35.7 µM in [2]; over 57.1 µM in [3]; 23.1 µM in [4]; 84.6 µM in experiment [5]; over 100 µM in experiment [6]. In experiment [7], this compound displayed a TGI of over 100 µM.

Turning to `COc1ccc(-c2ccccc2)c2[nH]c3c(c12)CCNC3=O`, the TGI in experiment [1], in experiment [2], in [3], in experiment [4], in experiment [5] and in experiment [6] was over 100 µM in each case. The TGI in [7] was over 100 µM.

As for `CC1=C(C(=O)NCc2ccccc2)C(c2ccccc2C)C(C(=O)NCc2ccccc2)=C(C)N1`, the TGI is 73 µM in [1]; 45.5 µM in experiment [2]; over 100 µM in experiment [3]; over 100 µM in [4]; over 76.4 µM in [5]; over 95.5 µM in experiment [6]. This compound came in with a TGI in experiment [7] of over 100 µM.

Take `CN(NC1OC(CO)C(O)C(O)C1O)c1ccccc1` (stereo not drawn): the TGI in experiment [1], in [2], in experiment [4], in experiment [5], in experiment [6] and in experiment [7] was over 100 µM in each case.

`CN(C)CCn1cnc2ncccc2c1=O`: the TGI in experiment [1], in [2], in [4] and in experiment [6] was over 100 µM in each case.

As to `Cc1ccc(-c2nc(N3CCNCC3)c3oc(-c4ccccc4)nc3n2)cc1`, the GI50 in experiment [10] was 2.53 µM; in [1], 1.78 µM; in experiment [2], 1.96 µM; in experiment [3], 14.5 µM; in experiment [4], 2.16 µM; in experiment [5], over 100 µM. The GI50 in [8] was 1.7 µM; in experiment [6] it was 1.68 µM; in [7], 2.16 µM. The TGI was 7.69 µM in [10]; 3.32 µM in experiment [1]; 3.48 µM in [2]; 28.8 µM in experiment [3]; 4.79 µM in [4]; over 100 µM in [5]. Also, the TGI in [8] was found to be 3.19 µM; in [6], 3.36 µM; in experiment [7], 4.77 µM.

On to `c1ccc(-c2n(Cc3ccc4ccccc4c3)cc[n+]2Cc2ccc3ccccc3c2)cc1`, for which the GI50 in experiment [10] is 1.61 µM; in experiment [4], 1.56 µM; in experiment [8], 1.22 µM; in experiment [9], 13.9 µM; in [6] it was 1.36 µM. The TGI in [10] was found to be 4.08 µM; in experiment [4], 4.06 µM; in [8] it was 2.68 µM; in experiment [9], 35.4 µM; in [6], 2.75 µM.

As to `CN(C)C(=O)NC(=S)N(C)C`, the TGI in [1], in [3], in experiment [4], in experiment [5], in [6] and in [7] was over 100 µM in each case.

Regarding `CC(=O)[CH-]C(=O)c1ccccc1.CC(=O)[CH-]C(=O)c1ccccc1.CC(C)CCC[C@H](C)C1CCC2[C@@H]3CC=C4C[C@@H]([O-])CC[C@]4(C)C3CC[C@@]21C.CC(C)CCC[C@H](C)C1CCC2[C@@H]3CC=C4C[C@@H]([O-])CC[C@]4(C)C3CC[C@@]21C.Cl.[Ti+4]` (stereo partly drawn), the GI50 in [1], in [2], in [3], in experiment [4], in experiment [5] and in experiment [6] was over 25 µM each time. For the same compound, the GI50 in [7] is over 25 µM. In addition, the TGI in experiment [1], in experiment [2], in experiment [3], in experiment [4], in [5] and in experiment [6] was over 25 µM in each case. In [7], the TGI is over 25 µM.

Turning to `Clc1ccc(OCc2nnc3n2N=C(c2ccc(Br)cc2)CS3)cc1`, the TGI in experiment [1] is over 100 µM; in experiment [3], 25.7 µM; in [4], over 100 µM; in [5], 83.3 µM; in experiment [6] it was over 100 µM; in experiment [7], over 100 µM.

Take `CC(=O)OCC1OC(OCc2ccccc2)C(Br)C(OC(C)=O)C1OC(C)=O` (stereo not drawn): the TGI in experiment [1], in [2], in experiment [3], in [4], in experiment [5] and in experiment [6] was over 100 µM in each case. Moreover, in experiment [7], the concentration for total growth inhibition (TGI) is over 100 µM.
